Experimental data as given in patent US5885824A, “Recombinant genomic clone encoding the histamine H2 receptor, methods for production thereof, and protein produced therefrom” (The Regents of the University of Michigan, priority 1993, dated 1999).
Entries after “also recorded” stand apart in the source; their conditions may differ.

Columns and labels:
[1] = biological target: T1, canine histamine H2 receptor (Canis lupus familiaris, UniProt P17124); experiment: cyclic AMP content of L-cells transfected with CMVneo vector containing the canine histamine H2 receptor gene insert; type: cell-based; conditions: for effect on cAMP content: doses as high as 10^-4 M, transfected L-cells
T1 construct: cloning of the entire gene encoding a histamine H2 receptor using cDNA derived from mRNA isolated from a canine gastric cell source; expressed in transfected cells; host or cells: mouse L-cells, permanently transfected (CMVneo vector, G418 selection)
T1 sequence (P17124 whole entry): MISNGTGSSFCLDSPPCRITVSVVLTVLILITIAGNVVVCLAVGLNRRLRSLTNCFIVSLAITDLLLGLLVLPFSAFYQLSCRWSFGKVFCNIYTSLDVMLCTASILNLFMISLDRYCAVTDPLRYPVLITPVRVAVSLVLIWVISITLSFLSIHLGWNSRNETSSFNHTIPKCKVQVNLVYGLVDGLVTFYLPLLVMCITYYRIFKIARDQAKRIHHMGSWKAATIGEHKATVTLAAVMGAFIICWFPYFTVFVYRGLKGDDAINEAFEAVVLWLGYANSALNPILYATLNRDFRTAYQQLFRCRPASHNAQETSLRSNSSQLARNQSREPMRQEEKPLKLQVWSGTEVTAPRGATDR

[2] = biological target: T1, canine histamine H2 receptor; experiment: inhibition of [methyl-3H]-tiotidine binding to transformed L-cells; conditions: for inhibition of [methyl-3H]-tiotidine binding (in words): percent of maximal specific binding
Experimental: Transformed L-cells were plated and grown to confluence in 2.4×1.7 cm multi-well plates. The culture media was removed and cells were washed twice with Earle's balanced salt solution containing 0.1% bovine serum albumin. An aliquot (36 nCi) of [methyl-^3 H]-tiotidine (87 Ci/mmol; Dupont, Boston Mass.) was added to the culture in the presence of either cimetidine or diphenhydramine and after one hour of incubation, the medium was removed by aspiration. The cells were washed twice with 0.2M phosphate buffered NaCl pH 7.4, lysed with 1% Triton X-100, and the radioactivity was quantified. Maximum binding was determined by incubation of [methyl-^3H]-tiotidine with transformed L-cells in the absence of antagonists and non-specific binding, which was subtracted from total binding to obtain specific binding, was determined as the amount of label remaining bound in the presence of 10^-4 M histamine. The data, presented as percent of maximal specific binding, are from a single experiment and are virtually identical to data obtained in two other experiments.

Compound	effect on cAMP content [1]	inhibition of [methyl-3H]-tiotidine binding (in words) [2]	other results
CNC[C@H](O)c1ccc(O)c(O)c1 [epinephrine]	no effect	–	–
NCCc1c[nH]cn1 [histamine]	–	–	activation at 10 µM ([1]; 1 h, read-out: maximum increase in cellular cyclic AMP content): 217 ± 10%
NCCc1ccc(O)c(O)c1 [dopamine]	no effect	–	–
CN(C)CCOC(c1ccccc1)c1ccccc1 [diphenhydramine]	–	inhibited binding only at the very highest dose; also recorded: no ability to inhibit [methyl-^3 H]-tiotidine except with the highest dose	–
CN/C(=N/CCSCc1nc[nH]c1C)NC#N [cimetidine]	–	dose-dependently inhibited label binding	IC50 ([2]; one hour of incubation, mean±se n=4, read-out: ED50 for displacement of [methyl-3H]-tiotidine binding): 550 nM; effect on histamine cAMP dose-response curve ([1]; 60 min pre-incubation with cimetidine (10^-4 M)): shifted to the right
NCCc1c[nH]c2ccc(O)cc12 [Serotonin]	no effect	–	–
